This is an account of results in PMC13120037 (2026).

Assay [1] deals with Seq78-2 (DNA, aptamer) GGGAGCTCAGAATAAACGCTCAAGCACGCGTCGTCTTCCTGCGCTTCTCCCCGCATCATTCGACATGAGGCCCGGATC
Briefly: AuNP colorimetric assay (A520). The following applies: Na+ (NaCl 40 mM final, added after binding); room temperature, 30 min; 1 μg/mL α-amanitin, aptamer 0-1600 nM; 35 or 78 nt form not stated.

Assay [2] relates to Seq78-4 (DNA, aptamer) GGGAGCTCAGAATAAACGCTCAATTTTCGCTGGCTAGTCAGTTTTCTCGTCGTGTGATTTCGACATGAGGCCCGGATC
Briefly: AuNP colorimetric assay (A520). The following applies: Na+ (NaCl 40 mM final, added after binding); room temperature, 30 min; 1 μg/mL α-amanitin, aptamer 0-1600 nM; 35 or 78 nt form not stated.

The subject of assay [3] is Seq78-7 (DNA, aptamer) GGGAGCTCAGAATAAACGCTCAAGTTCCTCTATTCTAGTTATGCGCTACGTACGCTAGTTCGACATGAGGCCCGGATC
Briefly: AuNP colorimetric assay (A520). The settings on record: Na+ (NaCl 40 mM final, added after binding); room temperature, 30 min; 1 μg/mL α-amanitin, aptamer 0-1600 nM; 35 or 78 nt form not stated.

Assay [4] relates to Seq78-9 (DNA, aptamer) GGGAGCTCAGAATAAACGCTCAACTTTTCTGGTTACTCTCGTTTGTTTGATGTTACTTTTCGACATGAGGCCCGGATC
In words: AuNP colorimetric assay (A520). The settings on record: Na+ (NaCl 40 mM final, added after binding); room temperature, 30 min; 1 μg/mL α-amanitin, aptamer 0-1600 nM; 35 or 78 nt form not stated.

In assay [5] the test system is Seq78-2 (DNA, aptamer) GGGAGCTCAGAATAAACGCTCAAGCACGCGTCGTCTTCCTGCGCTTCTCCCCGCATCATTCGACATGAGGCCCGGATC
Briefly: magnetic-bead strand release, supernatant absorbance (Nanodrop). The following applies: 25 °C, 60 min; 20 μM α-amanitin; capture strand Capture-am-biotin displaced; Langmuir single-point calculation, not fitted.

The test system of assay [6] is Seq78-4 (DNA, aptamer) GGGAGCTCAGAATAAACGCTCAATTTTCGCTGGCTAGTCAGTTTTCTCGTCGTGTGATTTCGACATGAGGCCCGGATC
The assay is described as above. The following applies: 25 °C, 60 min; 20 μM α-amanitin; capture strand Capture-am-biotin displaced; Langmuir single-point calculation, not fitted.

Assay [7] concerns Seq78-7 (DNA, aptamer) GGGAGCTCAGAATAAACGCTCAAGTTCCTCTATTCTAGTTATGCGCTACGTACGCTAGTTCGACATGAGGCCCGGATC
The assay is described as above. The settings on record: 25 °C, 60 min; 20 μM α-amanitin; capture strand Capture-am-biotin displaced; Langmuir single-point calculation, not fitted.

The subject of assay [8] is Seq78-9 (DNA, aptamer) GGGAGCTCAGAATAAACGCTCAACTTTTCTGGTTACTCTCGTTTGTTTGATGTTACTTTTCGACATGAGGCCCGGATC
The assay is described as above. The settings on record: 25 °C, 60 min; 20 μM α-amanitin; capture strand Capture-am-biotin displaced; Langmuir single-point calculation, not fitted.

As a reminder, the Kd is a measure of binding affinity in units of concentration. For the compound `CC[C@H](C)[C@@H]1NC(=O)CNC(=O)[C@@H]2Cc3c([nH]c4cc(O)ccc34)[S@](=O)C[C@H](NC(=O)CNC1=O)C(=O)N[C@@H](CC(N)=O)C(=O)N1C[C@H](O)C[C@H]1C(=O)N[C@@H]([C@@H](C)[C@@H](O)CO)C(=O)N2`, the dissociation constant (Kd) is 820 ± 5 nM in assay [1]; 60 ± 3 nM in assay [2]; 216 ± 3 nM in assay [3]; 881 ± 6 nM in assay [4]; 850 ± 45 nM in assay [5]; 57.80 ± 1.001 nM in assay [6]. For the same compound, the Kd in assay [7] was 256 ± 5 nM; in assay [8] it was 910 ± 31 nM.
